Tests used:
[1] = tested on: adult Drosophila; assay: toxic effect on Drosophila adult (injection, unmoving flies); format: in vivo, Drosophila melanogaster; details: for Number of Unmoving flies (%) Mean: 1 mM, 1h, adult flies injected (3.5 ng each), solvent 5
Description: We next tested the ability of the DDPs to affect the innate immune pathways, namely, the Toll and immune deficiency (IMD) pathways, which are the front line of defence against infection by microorganisms. […] Thus, we successfully found unique biological activity against Drosophila in 5 and 21, which may potentially be developed as insecticides.
Fig. 6 Biological activity against Drosophila. a Inhibitory effect of compound 21 on the IMD pathway Drosophila l(2)mbn cells were stimulated with heat-killed E. coli and the activity of the Attacin promoter, a read-out of the activation of the IMD pathway, was monitored by a luciferase assay. Data are means ± SEM of triplicate wells from a single experiment and are representative of two independent experiments. b Toxic effect of compound 5 on Drosophila adult. […] Data are the means ± SEM of triplicate samples from a single experiment and are representative of two independent experiments. Source data underlying Fig. 6a, b are provided in a Source Data file.
Policy information about cell lines […]
were distributed from National Cancer Institute (Frederick, MD). HT-29, MCF-7, DU-145 and PC-3 were purchased from American Type Culture Collection (Baltimore, MD). MKN-1, MKN-74, MKN-45, MKN-A and MKN-B were purchased from Immuno-Biological Laboratories, Co., Ltd., Gumma, Japan). St-4, HBC-4, HBC-5 and BSY-1 were established in Japanese Foundation for Cancer Research (Tokyo, Japan).
DL-1 and l(2)mbn were gifted from Dr. Kurata in Tohoku University.
MCF-7 (Fig.5 and Supplementary Fig. 46) were obtained from American Type Culture Collection.
HeLa-CD4-LTR/ !-galactosidase (MAGI) cells provided by Dr. J. Overbaugh through the NIH AIDS Research and Reference […]
PC-3) were authenticated by STR analysis.
DL-1 and l(2)mbn are Drosophila cell lines, and were not authenticated.
MCF-7 cells (for Fig. 5 and Supplementary Fig. 46) were authenticated by STR analysis to evaluate antiproliferative activity […]
MAGI cells were authenticated by the NIH.
Mycoplasma contamination All the cell lines tested negative for mycoplasma contamination. […]

[2] = target: Aβ42 (Homo sapiens, UniProt P05067); assay: TEM analysis of amyloid fibrils formed by Aβ42; format: biochemical
Sequence of Aβ42 (P05067 672-713): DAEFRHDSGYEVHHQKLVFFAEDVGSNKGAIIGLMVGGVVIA

[3] = tested on: OVCAR-5; assay: cells; parameters: JFCR39 human cancer cell line panel, antiproliferative dose response (optical density), GI50; details: Homo sapiens, OVCAR-5
Method: (§1) Initially, we evaluated new DDP analogues for their antiproliferative activities across the panel of 39 human cancer cell lines, JFCR39[50],[51]. […] Purified DDPs was dissolved in DMSO (Specially Prepared Reagent, Nuclease and Protease tested, NACALAI, 09659-14) to prepare 5 mM solutions. The Each DDP solution (5 mM) was used for antiproliferative effects on cancer cell lines (Supplementary Notes 23, 24, 25, 26), biological activity against Drosophila (Supplementary Note 27), anti-HIV assay (Supplementary Note 28) and screening of amyloid Ab42 aggregation inhibitors (Supplementary Notes 29).

[4] = tested on: A549; assay: cells; parameters: JFCR39 human cancer cell line panel, antiproliferative dose response (optical density), GI50; details: Homo sapiens, A549
Method: as §1

[5] = tested on: OVCAR-3; assay: cells; parameters: JFCR39 human cancer cell line panel, antiproliferative dose response (optical density), GI50; details: Homo sapiens, OVCAR-3
Method: as §1

[6] = tested on: St-4; assay: cells; parameters: JFCR39 human cancer cell line panel, antiproliferative dose response (optical density), GI50; details: Homo sapiens, St-4
Method: as §1

[7] = tested on: DMS114; assay: cells; parameters: JFCR39 human cancer cell line panel, antiproliferative dose response (optical density), GI50; details: Homo sapiens, DMS-114
Method: as §1

[8] = tested on: MKN1; assay: cells; parameters: JFCR39 human cancer cell line panel, antiproliferative dose response (optical density), GI50; details: Homo sapiens, MKN-1
Method: as §1

[9] = tested on: HCT-116; assay: cells; parameters: JFCR39 human cancer cell line panel, antiproliferative dose response (optical density), GI50; details: Homo sapiens, HCT-116
Method: as §1

[10] = tested on: SK-OV-3; assay: cells; parameters: JFCR39 human cancer cell line panel, antiproliferative dose response (optical density), GI50; details: Homo sapiens, SK-OV-3
Method: as §1

[11] = tested on: NCI-H226; assay: cells; parameters: JFCR39 human cancer cell line panel, antiproliferative dose response (optical density), GI50; details: Homo sapiens, NCI-H226
Method: as §1

[12] = tested on: DU-145; assay: cells; parameters: JFCR39 human cancer cell line panel, antiproliferative dose response (optical density), GI50; details: Homo sapiens, DU-145
Method: as §1

[13] = tested on: HBC-5; assay: cells; parameters: JFCR39 human cancer cell line panel, antiproliferative dose response (optical density), GI50; details: HBC5
Method: as §1

[14] = tested on: SNB-78; assay: cells; parameters: JFCR39 human cancer cell line panel, antiproliferative dose response (optical density), GI50; details: Homo sapiens, SNB-78
Method: as §1

GI50 [3]	GI50 [4]	GI50 [5]	GI50 [8]	GI50 [9]	GI50 [10]	GI50 [11]	GI50 [12]	Compound	Number of Unmoving flies (%) Mean [1]	formation of typical amyloid fibrils of Aβ42 [2]	paralysing activity against adult Drosophila ([1]; 1 h after injection)	GI50 [6]	GI50 [7]	GI50 [13]	GI50 [14]
–	–	–	–	–	–	–	–	C=C1CC[C@@H]2[C@](C)(CC[C@H]3O[C@H](C=C(C)C)C[C@@]23C)[C@@H]1Cc1c(OC)oc(CO)c(C(=O)OC)c1=O [Compound 21]	11.6667%	strongly prevented	–	–	–	–	–
–	–	–	–	–	–	–	–	C=C1CC[C@H]2[C@]3(C)C[C@@H](C=C(C)C)O[C@H]3CC[C@]2(C)[C@@H]1Cc1c(O)c(C)c(C)oc1=O [Compound 5, subglutinol A]	58.3333%	–	efficiently paralysed adult Drosophila	–	–	–	–
15.4 µM	10.4 µM	1.47 µM	13.2 µM	0.995 µM	10.8 µM	10.7 µM	12.3 µM	C=C1CCC2C3(C)CC(C=C(C)C)OC3CCC2(C)C1Cc1c(OC)oc(C)c(C)c1=O (centres unmarked) [Compound 23]	–	–	–	12.4 µM	0.0552 µM	10.7 µM	12.3 µM
–	–	–	–	–	–	–	–	C=C1CCC2C(C)(CCC=C(C)C)C(O)CCC2(C)C1Cc1c(OC)oc(CO)c(C(=O)OC)c1=O (centres unmarked) [Compound 13]	–	strongly prevented	–	–	–	–	–
14.5 µM	6.88 µM	2.68 µM	12.2 µM	1.3 µM	10.7 µM	10.6 µM	12.2 µM	C=C1CC[C@H]2[C@]3(C)C[C@H](C=C(C)C)O[C@H]3CC[C@]2(C)[C@@H]1Cc1c(OC)oc(C)c(C)c1=O [Compound 24]	–	–	–	12.2 µM	0.189 µM	10.7 µM	12.9 µM

Source: paper PMC7156458, “Synthetic biology based construction of biological activity-related library of fungal decalin-containing diterpenoid pyrones” (Nature Communications, 2020)
